{
  "source": "patent EP0347733A1",
  "about": "“Optically active hydantoin derivatives” (Eisai Co., Ltd., priority 1988, dated 1989)",
  "key": {"[1]": {"tested_on": "aconitine-induced arrhythmia", "test": "aconitine-induced arrhythmia model of mice", "type": "in vivo", "settings": "orally administered one hour before intraperitoneal injection of 0.1 mg/kg of aconitine, tachycardia and frequency of ventricular extrasystole from the electrocardiogram, 60 min", "description": "The antiarrythmic activity of the compound of the present invention was examined with aconitine-induced arrhythmia model of mice. When 0.1 mg/kg of aconitine is intraperitoneally injected, usually ventricular tachycardia occurs within 20 minutes. The compound of the present invention (d- or ℓ-compound) was orally administered one hour before the intraperitoneal injection of 0.1 mg/kg of aconitine and the tachycardia and the frequency of ventricular extrasystole were determined from the electrocardiogram to determine the antiarrhythmic activity (ED₅₀). The ED₅₀ of the d-compound was 40 mg/kg and that of the ℓ-compound was 5 mg/kg."}, "[2]": {"tested_on": "mice", "test": "acute toxicity tests with mice", "type": "in vivo", "description": "In the acute toxicity tests with mice, LD₅₀ of the d-compound was 700 mg/kg and that of the ℓ-compound was 200 mg/kg."}, "[3]": {"tested_on": "myocardial contraction", "test": "influence on myocardial contraction", "settings": "amount several times as much as the antiarrhythmically effective amount", "excerpt": "One of the pharmacological features of the compounds of the present invention is that they inhibit myocardial contraction only very slightly. This is a quite desirable property when they are used as the antiarrhythmic agents."}},
  "data": [
    {"smiles": "CC1(C)CC2(NC(=O)N(CCCN3CCC(O)CC3)C2=O)c2cc(Cl)ccc2O1", "note": "(single isomer, unassigned) [d-compound, d-6-Chloro-2,2-dimethyl-1′-[3-(4-hydroxypiperidino)propyl]spiro[chroman-4,4′-imidazolidine]-2′,5′-dione]", "values": [
      {"measurement": "antiarrhythmic activity (ED₅₀)", "setting": "[1]", "result": 40, "unit": "mg/kg"},
      {"measurement": "LD₅₀", "setting": "[2]", "result": 700, "unit": "mg/kg"}
    ]},
    {"smiles": "CC1(C)CC2(NC(=O)N(CCCN3CCC(O)CC3)C2=O)c2cc(Cl)ccc2O1", "note": "(single isomer, unassigned) [ℓ-compound, ℓ-6-Chloro-2,2-dimethyl-1′-[3-(4-hydroxypiperidino)propyl]spiro[chroman-4,4′-imidazolidine]-2′,5′-dione]", "values": [
      {"measurement": "antiarrhythmic activity (ED₅₀)", "setting": "[1]", "result": 5, "unit": "mg/kg"},
      {"measurement": "LD₅₀", "setting": "[2]", "result": 200, "unit": "mg/kg"}
    ]},
    {"smiles": "CC(C)N(CCC(C(N)=O)(c1ccccc1)c1ccccn1)C(C)C", "note": "(stereo not drawn) [disopyramide]", "values": [
      {"measurement": "influence on the myocardial contraction", "setting": "[3]", "result": "reduce myocardial contraction"}
    ]},
    {"smiles": "C=C[C@H]1C[N@@]2CC[C@H]1C[C@@H]2[C@@H](O)c1ccnc2ccc(OC)cc12", "note": "[quinidine]", "values": [
      {"measurement": "influence on the myocardial contraction", "setting": "[3]", "result": "reduce myocardial contraction"}
    ]}
  ]
}
